Results reported in patent US20140249143A1, “Compounds And Methods For Enhancing Innate Immune Responses” (GlaxoSmithKline LLC, priority 2011, published 2014).

Experiments:
[1] = system: reconstructed human epidermis (RHE) keratinocytes; assay: JAK/STAT induction in reconstructed human epidermis (western blot, real-time PCR); type: cell-based; conditions: 10 μM (IFN-alpha 100 U/mL), 6 and 72 hrs
Protocol: First, reconstructed human epidermis (“RHE”) consisting of cultured human keratinocyte cells were incubated in triplicate with media containing either the media alone, media+0.1% DMSO, media containing 10 μM of several putative JAK/STAT activator compounds described herein in Tables 1 and 2 (Example 1, Example 2, Example 11, and compound no. 89 (as a negative control)), or media containing 100 U/mL of a positive control Interferon-alpha (IFN-alpha) recombinant protein at 37° C. in a humidified atmosphere containing 5% CO2, for 6 and 72 hours.
At the end of the incubation period, the RHE tissues were cut into two sections. One section was ¼ of the total size and the second section was […].

JAK/STAT = JAK/STAT activator assay; type: cell-based
[2] = system: HCV genotype 1a subgenomic replicon; assay: Anti-Hepatitis C replicon assay, genotype 1a (luciferase); type: cell-based; conditions: Hepatitis C virus; luciferase activity measured 48 hours later; read-out: HCV Genotype 1A Replicon pEC50 (converted)
Protocol: (§1) Compounds were assayed for activity against HCV using the genotype 1a and 1b subgenomic replicon model systems. Stable cell lines bearing the genotype 1a and 1b replicons were used for screening of compounds. Both replicons are bicistonic and contain the firefly luciferase gene. The ET cell line is stably transfected with RNA transcripts harboring a I389luc-ubi-neo/NS3-3′/ET replicon with firefly luciferase-ubiquitin-neomycin phosphotransferase fusion protein and EMCV-IRES driven NS3-5B polyprotein containing the cell culture adaptive mutations (E1202G; T1280I; K1846T) (Krieger at al, 2001 and unpublished). The genotype 1a replicon is a stable cell line licensed from Apath LLC, modified to contain the firefly luciferase gene. The cells were grown in DMEM, supplemented with 10% fetal calf serum, 2 mM Glutamine, Penicillin (100 IU/mL)/Streptomycin (100 μg/mL), 1× nonessential amino acids, and 250-500 μg/mL G418 (“Geneticin”). They were all available through Life Technologies (Bethesda, Md.). The cells were plated at 0.5×10^4 cells/well in 384 well plates containing compounds. The final concentration of compounds ranged between 0.03 pM to 50 μm and the final DMSO concentration of 0.5-1%.
(§2) Luciferase activity was measured 48 hours later by adding a Steady glo (Promega, Madison, Wis.). Percent inhibition of replication data was plotted relative to no compound control. Under the same condition, cytotoxicity of the compounds was determined using cell titer glo (Promega, Madison, Wis.). IC50s were determined from a 10 point dose response curve using 3-4-fold serial dilution for each compound, which spans a concentration range>1000 fold. BioAssay determines the level of inhibition for each compound by normalizing cross-talk corrected plate values against the negative (low or background, cells with no compound present) and positive (high DMSO, no cells) controls to determine Percent Inhibition:
(§3) These normalized values are exported to IC50 where they are plotted against the molar compound concentrations using the standard four parameter logistic equation: […]

[3] = system: HCV genotype 1b subgenomic replicon; assay: Anti-Hepatitis C replicon assay, genotype 1b (luciferase); type: cell-based; conditions: Hepatitis C virus; luciferase activity measured 48 hours later; read-out: HCV Genotype 1B Replicon pEC50 (converted)
Protocol: as §1, §2, §3

[4] = system: ISG56 (Interferon-Stimulated Gene 56) promoter ISRE; assay: ISG56 luciferase reporter assay in HEK 293 cells; type: cell-based; conditions: Homo sapiens, HEK293; HEK 293 reporter, 24 hours; 100% = small molecule control test compound; read-out: ISG56 (Average Max Response) %
Protocol: Compounds of the present invention were tested against a HEK (Human Embryonic Kidney) 293 cell line that was stably transfected with a firefly luciferase reporter gene under the control of the ISG56 (Interferon-Stimulated Gene 56) promoter ISRE (Interferon-Stimulated Response Element). While the ISRE is in the opposite orientation of the wild type promoter, literature^1 cites that the response elements are pallindromic and function properly in either orientation. ^1Reich, N., Evans, B., Levy, D., Fahey, D., Knight, E., Damell, J. E. (1987) Interferon-induced transcription of a gene encoding a 15-kDa protein depends on an upstream enhancer element. See, Proc. Natl. Acad. Sci. 84, (6394-6398).
In preparation for the assay, test compounds were serially diluted 3-fold in DMSO from a typical top concentration of 5 mM and plated at 0.2 μL in a 384-well, polystyrene, tissue culture treated plate with lid (Greiner Bio-One North America, Inc., Monroe, N.C.) to generate 11-point dose response curves in the assay. Low control wells (0% response) contained 0.2 μL of DMSO alone, and high control wells (100% response) contained 0.2 μL of a small molecule control test compound.
Frozen stocks of the transfected HEK 293 cells were washed and recovered in DMEM I Ham's F-12 media (Invitrogen Corporation, Carlsbad, Calif.) supplemented with 10% v/v qualified Australian fetal bovine serum (FBS) (Invitrogen Corporation, Carlsbad, Calif.), 1× GlutaMAX™ (Invitrogen Corporation, Carlsbad, Calif.), 1×MEM non-essential amino acids (NEAA) (Invitrogen Corporation, Carlsbad, Calif.) and 500 μg/ml Geneticin® (Invitrogen Corporation, Carlsbad, Calif.). The cells were diluted to 500,000 cells/mL in the supplemented DMEM/Ham's F-12 media, and 20 μL of the cell suspension were added to each well of the previously prepared 384-well compound plate, resulting in 10,000 cells/well. The plate, with lid, were placed in a 37° C., 5% CO2 humidified incubator for 24 hours.
Following incubation, the plates were removed and placed on the bench top without lids to equilibrate to room temperature for 30 minutes. Steady-Glo® (Promega Corporation, Madison, Wis.) was prepared according to the manufacturer's instructions, and 10 μL were added to each plate well. After a twenty minute incubation at room temperature, luminescence was read on a ViewLux™ (PerkinElmer Inc., Waltham, Mass.).
The data for dose responses were plotted as % activation versus compound concentration following normalization using the formula 100*((U−C1)/(C2−C1)), where U was the unknown value, C1 was the average of the low (0% response) control wells and C2 was the average of the high (100% response) control wells. Curve fitting was performed with the equation y=A+((B−A)/(1+(10^x/10^C)^D)), where A was the minimum response, B was the maximum response, C was the log(EC50) and D was the Hill slope. The results for each test compound were recorded as pEC50 values (—C in the above equation) and as max response values at a given concentration.

ISGs and cytokines mRNA [5] = assay: Dose response of ISG induction in vivo; design: species or system CD-1 mice; conditions: 0, 200, 600, 1000 mg/kg oral gavage, 24 h, blood and tissues
Protocol: Naive male CD-1 mice were obtained from Charles Rivers Laboratories (Wilmington, Mass.) and administered with Example 11 in a dose response (0, 200, 600, and 1000 mg/kg; three mice per dose group) by oral gavage. The dose of 200 mg/kg was in 0.5% HPMC/0.1% Tween 80 whereas the rest of doses were in 30% solutol/70% PEG400. At 24 h, the blood and tissues were collected and processed as described above. The gene expressions of various ISGs and cytokines were monitored by real time RT-PCR (see above for the details).

STAT1 phosphorylation = STAT1 phosphorylation immunoblot in HCV replicon cells; type: cell-based; conditions: IFNα 100 U/ml
Protocol: IFNα (100 U/ml) and DMSO were included as controls. The total cell lysates were analyzed on a 4-20% SDS-PAGE gradient gel and followed by immunoblotting using anti-phopho STAT1 antibody (Cell Signaling). The level of actin was monitored as a loading control. The bands were visualized by the alkaline phosphatase activity conjugated with the secondary antibody (Promega) using ProtoBlot II AP System™ (Promega).

[6] = system: interferon stimulated genes (ISGs); assay: Expression of interferon stimulated genes in HCV replicon cells (real time RT-PCR); type: cell-based; conditions: Example 1 2 μM, IFNα 100 U/ml
Description: The up-regulation of interferon stimulated genes upon treatment with Example 1 was monitored by quantitative real time RT-PCR using specific primers for each gene, as shown in FIG. 3. […] Total RNA was isolated using RNeasy 96 kit (Qiagen) and converted to cDNA using High Capacity cDNA reverse transcription kit (Applied Biosystems). For real time PCR, the cDNA was used for PCR reactions using TaqMan Fast Universal PCR master mix (Applied Biosystems) and specific primers (Applied Biosystems). As housekeeping genes, actin and GAPDH were used for normalization. Data was calculated by the ΔΔCt method and fold change determined compared to DMSO-treated control samples.

human JAK1 = target: T1, human JAK1 (Homo sapiens, UniProt P23458); assay: JAK1 reconstitution in U4A and 2fGH cells (phosphor-STAT1 western blot, Taqman mRNA); type: cell-based; conditions: Example 1 10 μM, IFNα 100 U/ml
T1 construct: expressed in transfected cells; host or cells: U4A cells (JAK1-deficient derivative of the human fibroblast line 2fGH), transduced with a baculovirus mammalian expression system
Protocol: 2fGH and U4A cells were obtained from the Cleveland Clinic. 2fGH is a human fibroblast cell line and U4A cell line is a derivative 2fGH harboring a defect in JAK1 expression (Muller, et al., Nature 366, 129-135 (1993)). Green fluoroscent protein (GFP) or human JAK1 was transduced in U4A cells by baculovirus mammalian expression system. After 24 hours post transduction, the cells were treated with DMSO, Example 1 (10 μM), IFNα (100 U/ml), IFNβ (100 U/ml), or IFNγ (100 U/ml). Untransduced U4A cells and 2fGH cells were included as controls for 6 or 18 hours. The cells were harvested at indicated time points and used for detecting phosphor-STAT1 by western blot (FIG. 10, panel A) or for mRNA analysis by Taqman quantitation (FIG. 10, panel B).
The total cell lysates were analyzed on a 4-20% SDS-PAGE gradient gel and followed by immunoblotting using anti-phopho STAT1 antibody (Cell Signaling). The level of actin was monitored as a loading control. The bands were visualized by the alkaline phosphatase activity conjugated with the secondary antibody (Promega) using ProtoBlot II AP system (Promega).
Gene expression was measured using TaqMan Fast Universal PCR Master Mix (Applied Biosystems) and gene specific probes and murine primers in HT7900 FAST System (Invitrogen). As housekeeping genes, actin and GAPDH were used for normalization. Data was calculated by the ΔΔCt method and fold change determined compared to non-treated control samples.

[7] = system: respiratory syncytial virus (RSV); assay: RSV plaque assay on HEp-2 cells; type: cell-based; conditions: 1000 U/ml
Protocol: A broad spectrum of antiviral activity of Example 1 was accessed by testing it for potency against other viruses. (See FIG. 8). […] RSV (long form) was inoculated on the layer of HEp-2 cells at multiplicity of infection of <0.001. After 4 hour post infection, the inoculum was replaced with 0.3% agarose containing MEM and various concentration of Example 1 or IFNα. The cells were incubated for up to 5-6 days until the plaques were visible. The cells were then fixed with 3% formaldehyde and stained with neutral red for visualization.

ISGs and cytokines mRNA [8] = assay: Induction of ISGs in mice in vivo; design: species or system Balb/c mice; conditions: Example 1 oral 300 mg/kg; murine IFNα2 30 ug/kg intravenously
Protocol: Naive Balb/c mice were purchased from Charles River Laboratories (Wilmington, Mass.) and administered with murine IFNα2 (30 ug/kg) intravenously or administered with oral Example 1 (300 mg/kg in 30/70% solutol/polyethylene glycol 400). The mice were then euthanized by CO2 inhalation at 0.5, 2, 6, 8, and 24 hours for sample collection. Four mice per dose group were tested.
For RNA isolation, the blood was collected in an RNAprotect™ tube (Qiagen) and processed with RNeasy Protect™ animal blood kit (Qiagen) according to the manufacturer's protocol. To preserve RNA, 30-200 mg of tissue pieces were stored in RNAlater™ solution (Invitrogen) until use. For RNA isolation, the thawed tissues were homogenized using a TissueLyser™ system (Qiagen) and processed with RNeasy 96 Universal Tissue Kit™ (Qiagen) according to the manufacturer's protocol. To remove DNA contamination, on-plate DNase digestion was included during the RNA purification.
For real time RT-PCR, cDNA was made using High Capacity cDNA Reverse Transcription Kit™ (Applied Biosystems). Gene expression was measured using TaqMan Fast Universal PCR Master Mix™ (Applied Biosystems) and gene specific probes and murine primers in HT7900 FAST System™ (Invitrogen). As housekeeping genes, actin and GAPDH were used for normalization. Data was calculated by the ΔΔCt method and fold change determined compared to non-treated control samples.

T1 sequence (P23458 whole entry): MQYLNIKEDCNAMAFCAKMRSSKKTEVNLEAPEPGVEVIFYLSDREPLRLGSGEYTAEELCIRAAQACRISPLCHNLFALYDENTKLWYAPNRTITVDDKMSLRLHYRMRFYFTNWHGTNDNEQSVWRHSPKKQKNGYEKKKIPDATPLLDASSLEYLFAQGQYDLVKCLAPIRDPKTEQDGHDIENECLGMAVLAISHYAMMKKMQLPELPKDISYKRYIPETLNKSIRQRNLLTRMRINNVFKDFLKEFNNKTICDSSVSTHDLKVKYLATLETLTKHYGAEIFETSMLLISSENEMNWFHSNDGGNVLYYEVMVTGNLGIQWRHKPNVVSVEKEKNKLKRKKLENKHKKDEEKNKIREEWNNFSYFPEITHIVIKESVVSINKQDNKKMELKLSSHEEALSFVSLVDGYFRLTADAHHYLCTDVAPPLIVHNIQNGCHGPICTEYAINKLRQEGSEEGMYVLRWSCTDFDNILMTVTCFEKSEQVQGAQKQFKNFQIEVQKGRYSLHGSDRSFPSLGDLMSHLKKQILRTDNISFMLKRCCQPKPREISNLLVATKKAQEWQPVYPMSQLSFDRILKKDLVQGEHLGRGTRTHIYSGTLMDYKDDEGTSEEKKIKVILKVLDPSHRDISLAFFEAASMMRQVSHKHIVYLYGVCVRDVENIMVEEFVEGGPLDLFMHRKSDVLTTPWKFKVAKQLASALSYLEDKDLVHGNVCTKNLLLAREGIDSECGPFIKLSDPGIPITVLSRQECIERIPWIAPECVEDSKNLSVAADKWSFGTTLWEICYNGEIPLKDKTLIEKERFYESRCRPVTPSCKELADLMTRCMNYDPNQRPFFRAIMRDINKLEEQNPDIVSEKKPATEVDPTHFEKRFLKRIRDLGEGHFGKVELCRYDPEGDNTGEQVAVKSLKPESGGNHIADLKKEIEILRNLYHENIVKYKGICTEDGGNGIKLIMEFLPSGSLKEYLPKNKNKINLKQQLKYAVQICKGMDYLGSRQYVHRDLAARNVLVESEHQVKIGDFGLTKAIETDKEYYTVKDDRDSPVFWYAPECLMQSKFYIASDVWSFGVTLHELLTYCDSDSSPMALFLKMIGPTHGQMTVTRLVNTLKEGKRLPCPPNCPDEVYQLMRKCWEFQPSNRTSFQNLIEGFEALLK

## FC(F)(F)c1cc(C(F)(F)F)c2ccc3nc(-c4nncs4)cn3c2n1 [Compound 89]
[1]
  Stat1 phosphorylation (western blot): did not show phosphorylation of Stat1
JAK/STAT
  result in the JAK/STAT activator assay: negative

## FC(F)(F)c1nc(C(F)(F)F)c2ccc3nc(-c4nnco4)cn3c2n1 [Compound 11, 4-(1,3,4-oxadiazol-2-yl)-10,12-bis(trifluoromethyl)-2,5,11,13-tetraazatricyclo[7.4.0.0^2,^6]trideca-1(9),3,5,7,10,12-hexaene]
[2]
  EC50: 251 nM
[3]
  EC50: 794 nM
[4]
  Emax: 293%
ISGs and cytokines mRNA [5]
  induction of ISG in dose response: correlated with given doses in all tissues
[1]
  Stat1 phosphorylation (western blot): Stat1 phosphorylation

## IFNα
STAT1 phosphorylation; Example 1 2 uM, 1 h, 6 h, 24 h
  STAT1 phosphorylation: induced STAT1 phosphorylation
STAT1 phosphorylation
  time at which phosphorylated STAT1 peaked: 1 h
[6]
  time of maximum induction of ISGs: 4 h
Human JAK1
  activation of STAT1 in U4A cells transduced with JAK1: activation of STAT1 was observed
  p-STAT1 in U4A cells (JAK1 deficient) transduced with GFP: not present
[7]
  RSV plaques: significantly reduced the number and size of the plaques
[1]
  Stat1 phosphorylation (western blot): Stat1 phosphorylation

B1: murine IFNα: murine IFNα2 administered intravenously to mice (30 ug/kg) as comparator (protein, UniProt P01573 24-190, looked up)
Interferon alpha-2: CDLPHTYNLRNKRALKVLAQMRRLPFLSCLKDRQDFGFPLEKVDNQQIQKAQAIPVLRDLTQQTLNLFTSKASSAAWNATLLDSFCNDLHQQLNDLQTCLMQQVGVQEPPLTQEDALLAVRKYFHRITVYLREKKHSPCAWEVVRAEVWRALSSSVNLLPRLSEEKE
ISGs and cytokines mRNA [8]
  up-regulation of ISGs at 24 hours: evidently diminished
